Measured values as given in patent US11649228B2, “Zinc indicators for cellular imaging” (The Board of Regents of the University of Texas System, priority 2018, dated 2023).
Like-named read-outs stand apart in the source and are kept apart here.

What was measured:
[1] = Table 2, previously reported sensors, cited from earlier work; for Kd: read-out: Kd(Zn^2+)
[2] = Zn^2+ titration of ZIGIRs by fluorescence emission (Hill plot); assay type: binding
Procedure: (§1) UV-Vis spectra were recorded in a 1-cm path quartz cell on a Shimadzu 2401 PC spectrometer. Fluorescence excitation and emission spectra were recorded on a Fluorolog 3 spectrometer (Jobin-Yvon Horiba, Edison, N.J.). Zinc titration was performed by adding ZIGIRs (0.5 μM final concentration) to buffered Zn^2+ solutions containing 100 mM HEPES (pH 7.4). Nitrilotriacetic acid (NTA, 10 mM) and varying concentrations of ZnSO4 (0-9 mM) were mixed to reach free Zn^2+ concentrations between 0.1 nM and 40 nM (Li et al., 2011). Zn^2+ concentrations above 40 nM were controlled by iminodiacetate (IDA, 10 mM) and varying amounts of ZnSO4 (0-9.7 mM) in 100 mM HEPES (pH 7.4; Sasaki et al., 2011). To determine Zn^2+ binding dissociation constants (Kd(Zn^2+)), the Zn^2+ titration data were fitted to the least square exponential equation (Prism 7). Fluorescence quantum yields of ZIGIRs at pH 7.5 were determined using rhodamine 6G as the reference (Φfl=0.94 in MeOH; Magde et al., 2002). An example in shown FIGS. 11A0B. To examine the pH sensitivity of ZIGIRs, the fluorescence emission spectra was recorded from pH 3-9.4 in either nominally Zn^2+-free solutions containing 5 mM iminodiacetate or in 25 μM ZnSO4 solutions. The pH was controlled with 10 mM pH buffers including chloroacetic acid (pH 3.1), acetate (pH 4.1 and 5.0), 2-morpholinoethanesulfonic acid (MES, pH 6.14), HEPES (pH 7.5) and N-cyclohexyl-2-aminoethanesulfonic acid (CHES, pH 9.4).

[3] = Photochemical characterization of ZIGIRs in vitro (absorption, emission, quantum yield); assay type: physicochemical; settings: for ε (extinction coefficient): in M-1·cm-1 (unit assumed); for ϕfl × ε (fluorescence brightness): in M^-1 cm^-1 (unit assumed); for fluorescence quantum yield: Zn^2+-bound state
Procedure: as §1

[4] = pH sensitivity of ZIGIR fluorescence; assay type: physicochemical; settings: same Zn^2+ level
Procedure: as §1, with “The pH was controlled with 10 mM pH buffers including chloroacetic acid (pH 3.1), acetate (pH 4.1 and 5.0), 2-morpholinoethanesulfonic acid (MES, pH 6.14), HEPES (pH 7.5) and N-cyclohexyl-2-aminoethanesulfonic acid (CHES, pH 9.4).” left out

[5] = Metal ion selectivity of fluorescence response; assay type: physicochemical; settings: 1 μM sensor, 10 μM TPEN; against Na^+, K^+, Ca^2+, Mg^2+, Fe^2+, Ni^2+, Co^2+, Cu^2+, Mn^2+
Procedure: To study the metal selectivity, the fluorescence of ZIGIR-1 (1 μM) or ZIGIR-2 (1 μM) was measured in the presence of 10 μM TPEN and an excess of metal ion including 1 mM KCl, 1 mM NaCl, 1 mM CaSO4, 1 mM MgSO4, 15 μM MnSO4, 15 μM FeSO4, 15 μM NiSO4, 15 μM CoCl2, 15 μM CuSO4, 15 μM CdSO4 or 15 μM ZnSO4. The emission intensity was normalized to that of 15 μM ZnSO4 (100%).

COc1ccc(N(CC(=O)O)CC(=O)O)c(OCCOc2cc(-c3c4cc(F)c(=O)cc-4oc4cc(O)c(F)cc34)ccc2NCC(=O)O)c1 [FluoZin-3]
Zn^2+ response (fold change) [1]: >100×
Kd [1]: 15 nM

Cc1cc2c(c(CN(Cc3ccccn3)Cc3cnccn3)c1)OC1(CC2)C(C)c2ccccc2N1C (centres unmarked) [SpiroZin2]
Zn^2+ response (fold change) [1]: 8×
Kd [1]: 3.6 nM

CN=c1ccc2c(-c3ccc(NCCN(CCc4ccccn4)Cc4ccccn4)cc3C(=O)O)c3ccc(NC)cc3oc-2c1 [ZIGIR-1]
FC (fold change in fluorescence brightness ϕfl×ε from Zn^2+-free to Zn^2+-bound state) [2]: 50
fluorescence enhancement upon Zn^2+ binding [2]: 50 fold
Kd ([2]; 100 mM HEPES pH 7.4): 290 nM
absorption maximum [3]: ~520 nm
bathochromic shift in absorption maximum from Zn^2+-free to Zn^2+-bound state [3]: 4 nm
λabd^max ([3]; Zn^2+ bound): 521 nm
λem^max ([3]; Zn^2+ bound): 543 nm
ϕfl (fluorescence quantum yield) ([3]; Zn^2+ bound): 0.30
ε (extinction coefficient) ([3]; Zn^2+ bound): 112,000
ϕfl × ε (fluorescence brightness) ([3]; Zn^2+ bound): 33,600
λabd^max ([3]; Zn^2+ free): 517 nm
λem^max ([3]; Zn^2+ free): 547 nm
ϕfl (fluorescence quantum yield) ([3]; Zn^2+ free): 0.008
ε (extinction coefficient) ([3]; Zn^2+ free): 85,200
ϕfl × ε (fluorescence brightness) ([3]; Zn^2+ free): 682
fluorescence quantum yield [3]: 30%
fluorescence signal at pH 7.5 versus pH 5.0 [4]: essentially the same fluorescence signal
selectivity of fluorescence response for Zn^2+ [5]: selective for Zn^2+

CCN(CC)c1ccc2c(-c3ccc(NCCN(CCc4ccccn4)Cc4ccccn4)cc3C(=O)[O-])c3ccc(=[N+](CC)CC)cc-3oc2c1 [ZIGIR-3]
absorption maximum [3]: around 555 nm
emission maximum [3]: ~580 nm
fluorescence quantum yield [3]: 18%

COc1cc(O)c(-c2nc3c(CNCc4ccccn4)cccc3o2)cc1OC [ZINbo-5]
Kd [1]: 2.2 nM
